Laboratory results published in ChEMBL document CHEMBL1201862, “PubChem BioAssay data set” (2004).
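Interpolation was linear, between the two tested concentrations surrounding the appropriate level; five concentrations were tested over 48 hours in 96-well plates. GI50 is the concentration that inhibits growth by half.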 Activity calls are given as the source filed them. No stated cut-off is given here; in the data, active = GI50 up to about 1.1 µM and inactive = higher.

Legend:
Experiment in all cases: NCI tumour cell line growth inhibition, 48 h
MDA-N = test system: MDA-N
NCI-H226 = test system: NCI-H226
M14 = test system: M14
KM12 = test system: KM12
NCI-H460 = test system: NCI-H460
MDA-MB-231 = test system: MDA-MB-231
CCRF-CEM = test system: CCRF-CEM
HCT-116 = test system: HCT-116
SNB-19 = test system: SNB-19
SNB-75 = test system: SNB-75
PC-3 = test system: PC-3
OVCAR-8 = test system: OVCAR-8
UO-31 = test system: UO-31
A549 = test system: A549
786-0 = test system: 786-0
SN12C = test system: SN12C
LOX IMVI = test system: LOX IMVI
SK-MEL-28 = test system: SK-MEL-28

Measured: GI50

CN1C(=O)C(=CNc2ccccc2Cl)C(=O)N(C)C1=O
inactive: MDA-N > 100 µM | NCI-H226 > 100 µM | M14 21.9 µM | KM12 > 100 µM | NCI-H460 15.5 µM | MDA-MB-231 > 100 µM | CCRF-CEM 14.6 µM | HCT-116 18 µM | SNB-19 23.8 µM | SNB-75 > 100 µM | PC-3 20.2 µM | OVCAR-8 > 100 µM | UO-31 > 100 µM | A549 21.7 µM | 786-0 18.5 µM | SN12C > 100 µM | LOX IMVI 15.3 µM

Nc1ncnc2c1ncn2[C@@H]1C[C@H]1CO
inactive: MDA-N > 100 µM | NCI-H226 > 100 µM | M14 > 100 µM | KM12 > 100 µM | NCI-H460 > 100 µM | MDA-MB-231 > 100 µM | CCRF-CEM > 100 µM | HCT-116 > 100 µM | SNB-19 > 100 µM | PC-3 > 100 µM | OVCAR-8 > 100 µM | UO-31 > 100 µM | A549 > 100 µM | 786-0 > 100 µM | SN12C > 100 µM | LOX IMVI > 100 µM

Cc1ccc(/C=N/Nc2ncccn2)s1
inactive: MDA-N > 100 µM | NCI-H226 > 100 µM | M14 > 100 µM | KM12 > 100 µM | MDA-MB-231 > 100 µM | CCRF-CEM > 100 µM | HCT-116 > 100 µM | SNB-19 > 100 µM | SNB-75 > 100 µM | PC-3 > 100 µM | OVCAR-8 > 100 µM | SK-MEL-28 > 100 µM | UO-31 > 100 µM | A549 > 100 µM | 786-0 > 100 µM | SN12C > 100 µM | LOX IMVI > 100 µM

CCOC(=O)C1CCCc2sc(N)c(C#N)c21 (centres undefined)
inactive: MDA-N > 100 µM | NCI-H226 > 100 µM | M14 > 100 µM | KM12 > 100 µM | NCI-H460 > 100 µM | MDA-MB-231 > 100 µM | HCT-116 > 100 µM | SNB-19 > 100 µM | SNB-75 > 100 µM | PC-3 > 100 µM | OVCAR-8 > 100 µM | SK-MEL-28 > 100 µM | UO-31 > 100 µM | A549 > 100 µM | 786-0 > 100 µM | SN12C > 100 µM

COc1ccc(C2SCC(=O)N2c2ccc(-n3c(-c4ccccc4)nc4ccccc4c3=O)cc2)cc1OC (centres undefined)
inactive: MDA-N > 100 µM | NCI-H226 31.3 µM | M14 > 100 µM | KM12 > 100 µM | NCI-H460 > 100 µM | MDA-MB-231 > 100 µM | CCRF-CEM > 100 µM | HCT-116 > 100 µM | SNB-19 > 100 µM | SNB-75 3.11 µM | PC-3 71.3 µM | OVCAR-8 > 100 µM | SK-MEL-28 > 100 µM | UO-31 12.9 µM | A549 > 100 µM | 786-0 > 100 µM | SN12C > 100 µM | LOX IMVI > 100 µM
